Series [1] deals with X. oryzae pv. oryzae. The format is cell-based, Xanthomonas oryzae pv. oryzae. The settings on record: peptide at MIC, 2 h, 28 °C; PBS control.
Series [2] has as its system C. fangii, X. oryzae pv. oryzae, C. michiganensis, and R. solanacearum. The format is physicochemical. As to conditions: heated 30 min at 4 °C, 50 °C, 80 °C and 100 °C; agar diffusion on four indicator bacteria; compared to control SCK6-e. On the technique in general: A growth-free zone around the sample is the usual read-out of agar diffusion tests.
Series [3] relates to C. fangii.
Series [4] concerns X. oryzae pv. oryzae. The arrangement: species or system rice. As to conditions: control SCK6-e.
In series [5] the test system is X. oryzae pv. oryzae. The format is cell-based, Xanthomonas oryzae pv. oryzae. The settings on record: peptide 1 × MIC, OD600.
Series [6] has as its system C. michiganensis. The format is cell-based, Clavibacter michiganensis subsp.
The subject of a further series is Magnaporthe oryzae. Type of series: cell-based. As to conditions: peptide 260 μg/mL in PDA, 28 °C, 96 h; buffer control.
The test system of series [7] is C. michiganensis.
For series [8], the system named is X. oryzae pv. oryzae. The format is cell-based, Xanthomonas oryzae pv. oryzae. As to conditions: peptide at MIC; 28 °C, OD600 at 2–24 h; compared with polymyxin B.
Series [9] has as its system C. fangii. Nature of the series: Salt sensitivity assay. Type of series: cell-based, Clavibacter fangii. The settings on record: peptide 1 × MIC, OD600.
In series [10] the test system is X. oryzae pv. oryzae. Type of series: cell-based, Xanthomonas oryzae pv. oryzae. As to conditions: peptide at MIC, 2 h, 28 °C; X. oryzae pv. oryzae exponential phase; flow cytometry; control 0.07%.
The test system of series [11] is R. solanacearum. Type of series: cell-based, Ralstonia solanacearum. As to conditions: R. solanacearum (G-); extracellular peptide from B. subtilis strain; mean ± SD, three independent experiments; control SCK6-e 0.75 ±0.050.
Series [12] relates to X. oryzae pv. oryzae. The format is cell-based, Xanthomonas oryzae pv. oryzae. As to conditions: peptide at MIC, 10 μM DCFH-DA, 28 °C, after 30 min, upward trend at 120 min; compared to untreated strain.
Series [13] deals with X. oryzae pv. oryzae. Type of series: cell-based, Xanthomonas oryzae pv. oryzae. As to conditions: X. oryzae pv. oryzae (G-); extracellular peptide from B. subtilis strain; mean ± SD, three independent experiments; control SCK6-e 0.66 ±0.033.
In series [14] the test system is C. fangii. The format is cell-based, Clavibacter fangii.
The subject of series [15] is Gram-negative and Gram-positive bacteria. As to conditions: range over C. fangii, R. solanacearum, C. michiganensis, X. oryzae pv oryzae, X. oryzae pv. oryzicola, B. subtilis (168).
A further series deals with X. oryzae pv. oryzicola. As to conditions: X. oryzae pv. oryzicola (Gram-negative); purified peptide; LB medium, 28 °C, 24 h.
The test system of series [16] is X. oryzae pv. oryzae. The settings on record: X. oryzae pv. oryzae (Gram-negative); purified peptide; LB medium, 28 °C, 24 h.
Series [17] concerns R. solanacearum. As to conditions: R. solanacearum (Gram-negative); purified peptide; LB medium, 28 °C, 24 h.

In brackets after ≈: the same amount, converted by molar mass. Several values for one entry are separate records, joined by “and”; a condition that tells them apart may be missing. Equal values may be shown once. Read-outs that look alike come from different tables or passages of the source. Where a SMILES comes first, the peptide text is derived from it.

A word on the MIC: it is the lowest concentration found to suppress growth. High values mean weaker potency, low ones greater potency. For `CC[C@H](C)[C@H](NC(=O)[C@H](CO)NC(=O)[C@H](CCCCN)NC(=O)[C@H](CCCNC(=N)N)NC(=O)[C@@H](NC(=O)[C@H](CCC(=O)O)NC(=O)[C@H](Cc1ccc(O)cc1)NC(=O)[C@H](CS)NC(=O)[C@H](Cc1c[nH]cn1)NC(=O)[C@@H](NC(=O)[C@H](Cc1c[nH]cn1)NC(=O)[C@H](CCCCN)NC(=O)[C@H](CCC(=O)O)NC(=O)[C@H](CO)NC(=O)[C@H](CO)NC(=O)[C@@H](NC(=O)[C@H](CS)NC(=O)[C@H](CC(N)=O)NC(=O)[C@H](Cc1ccc(O)cc1)NC(=O)[C@@H](NC(=O)[C@H](Cc1c[nH]cn1)NC(=O)[C@@H](NC(=O)[C@H](Cc1ccc(O)cc1)NC(=O)[C@@H](NC(=O)[C@H](CC(=O)O)NC(=O)[C@@H](NC(=O)[C@@H](N)CC(C)C)C(C)C)[C@@H](C)CC)[C@@H](C)O)C(C)C)[C@@H](C)O)[C@@H](C)O)[C@@H](C)CC)C(=O)N[C@@H](CO)C(=O)O` [OrR214] (H-LVDIYTHVYNCTSSEKHTHCYEIRKSIS-OH), the “cell morphology by SEM and TEM” value in the series with X. oryzae pv. oryzae [1] is given as “severe damage to the cell membrane surface”. The “antimicrobial activity after heating (thermal stability)” value in series [2] is recorded as “significant activity”. The MIC in the series with C. fangii [3] (24 h) is reported as 10.7 µM (≈ 35.6 µg/mL); with C. michiganensis [7] (24 h) it was 10.5 µM (≈ 34.9 µg/mL); against B. subtilis (168) (168, 24 h), 8.3 µM (≈ 27.6 µg/mL). The “necrotic leaf lesion growth on detached rice leaves” value with X. oryzae pv. oryzae [4] (X. oryzae pv. oryzae mixed with peptide, leaf clipping, 28 °C, 7 d) is recorded as “decreased necrotic leaf lesion growth”. Further, in the series with X. oryzae pv. oryzae [4] (X. oryzae pv. oryzae, 7 d post-inoculation, lesion length), the “incidence of rice leaves” value is given as “decreased significantly”. The “antimicrobial activity at 150 mM Na+” value in the series with X. oryzae pv. oryzae [5] (NaCl 150 mM) and in the series with C. fangii [9] (NaCl 150 mM) was “slightly affected” throughout. The “antibacterial activity at 50–100 mM Na+” value in the series with X. oryzae pv. oryzae [5] (NaCl 50, 100 mM) was “significant bacteriostatic effect”; in the series with C. fangii [9] (NaCl 50, 100 mM), “significant bacteriostatic effect”. Also, the bacteriostatic diameter in the series on C. michiganensis [6] is recorded as 1.2 ±0.033 cm; with R. solanacearum [11], 1.3 ±0.050 cm; with X. oryzae pv. oryzae [13], 1.3 ±0.058 cm; in the series with C. fangii [14], 1.1 ±0.033 cm. The “mycelium growth of Magnaporthe oryzae” value in the series on Magnaporthe oryzae was “significantly inhibit the mycelium growth”. Also, the “time-kill, bacterial growth after peptide treatment” value with X. oryzae pv. oryzae [8] is reported as “hardly grew after 12 h of treatment”. In addition, the “PI staining rate (PI uptake)” value with X. oryzae pv. oryzae [10] was about 37.1%. Further, the “ROS production, DCFH-DA fluorescence intensity” value in the series on X. oryzae pv. oryzae [12] is “significantly increased”.

As for `CSCC[C@H](NC(=O)[C@@H](NC(=O)[C@@H](NC(=O)[C@H](CC(N)=O)NC(=O)[C@H](CC(N)=O)NC(=O)[C@H](CC(C)C)NC(=O)[C@H](CCCNC(=N)N)NC(=O)[C@H](CC(C)C)NC(=O)[C@@H](NC(=O)[C@H](CO)NC(=O)[C@H](CO)NC(=O)[C@@H](NC(=O)[C@@H]1CCCN1C(=O)[C@@H](NC(=O)CNC(=O)[C@@H](N)CC(C)C)C(C)C)C(C)C)[C@@H](C)O)[C@@H](C)O)[C@@H](C)O)C(=O)N[C@@H](CC(N)=O)C(=O)N1CCC[C@H]1C(=O)N[C@@H](CS)C(=O)N[C@@H](CC(C)C)C(=O)N1CCC[C@H]1C(=O)N[C@@H](CO)C(=O)O` [OrR935] (H-LGVPVSSTLRLNNTTMNPCLPS-OH), the MIC against C. fangii [3] (24 h) was 37.7 µM (≈ 87.3 µg/mL); against C. michiganensis [7] (24 h), 34.6 µM (≈ 80.1 µg/mL); in the series on X. oryzae pv. oryzicola it was 31.4 µM (≈ 72.7 µg/mL); with X. oryzae pv. oryzae [16], 44.0 µM (≈ 102 µg/mL); against R. solanacearum [17], 33 µM (≈ 76.4 µg/mL); against B. subtilis (168) (168, 24 h), 36.1 µM (≈ 83.6 µg/mL). Moreover, the “MIC (range over six bacteria)” value in series [15] fell in the range of 31.4 to 44.0 µM.

Regarding Polymyxin B [reference compound], the MIC against C. fangii [3] is reported as 25.0 µM; in the series with C. michiganensis [7], 12.5 µM; against X. oryzae pv. oryzicola, 10.0 µM; against X. oryzae pv. oryzae [16] it was 5.0 µM; against R. solanacearum [17], 7.5 µM; against B. subtilis (168) (B. subtilis (168) (Gram-positive), purified peptide, LB medium, 28 °C, 24 h), 15.0 µM. In addition, in series [15], the “MIC (range over six bacteria)” value is 5 to 25 µM and 5.0 to 25.0 µM.

Turning to “LSFCSCIRTNLDGFDQKLQWNPHFY [OrR1135, candidate antimicrobial peptide from the O. rufipogon cDNA library, 25 amino acids]”, the bacteriostatic diameter in the series with C. michiganensis [6] came out at 1.2 ±0.033 cm; in the series with R. solanacearum [11], 1.4 ±0.050 cm; with X. oryzae pv. oryzae [13], 1.2 ±0.11 cm; in the series on C. fangii [14], 1.1 ±0.060 cm.

Values taken from publication PMC7698926 (International Journal of Molecular Sciences, 2020).
